Experimental data as given in patent publication US10131652B2, “Pyrimidinyloxy benzene derivatives as herbicides” (E. I. DU PONT DE NEMOURS AND COMPANY, priority 2014, dated 2018).
Like-named read-outs stand apart in the source and are kept apart here.

Legend:
Test in all cases: Test D pre-/postemergence plant response
Format in all cases: in vivo
[1] = system: ragweed (common ragweed, Ambrosia elatior); conditions: Ambrosia artemisiifolia; for pest or weed control at 125 g/ha: 125 g ai/ha
Summary of the method: (§1)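 0 = no effect, 100 = complete control: plants were scored this way by visual comparison with controls 13 to 15 days post-treatment. Application was preemergence to sown loam/sand pots or postemergence to 2–18 cm seedlings in peat-based mix.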

[2] = system: waterhemp (common waterhemp, Amaranthus rudis); conditions: Amaranthus tuberculatus; for pest or weed control at 31 g/ha: 31 g ai/ha; for pest or weed control at 62 g/ha: 62 g ai/ha; for pest or weed control at 125 g/ha: 125 g ai/ha
Summary of the method: as §1

[3] = system: Italian ryegrass (Lolium multiflorum); conditions: Lolium multiflorum; for pest or weed control at 31 g/ha: 31 g ai/ha; for pest or weed control at 62 g/ha: 62 g ai/ha; for pest or weed control at 125 g/ha: 125 g ai/ha
Summary of the method: as §1

[4] = system: corn (Zea mays); conditions: Zea mays; for Corn plant response rating (crop injury, 0 = no effect, 100 = complete kill) at 62 g/ha: 62 g ai/ha
Summary of the method: as §1

[5] = system: lambsquarters (Chenopodium album); conditions: Chenopodium album; for pest or weed control at 31 g/ha: 31 g ai/ha; for pest or weed control at 62 g/ha: 62 g ai/ha; for pest or weed control at 125 g/ha: 125 g ai/ha
Summary of the method: as §1

[6] = system: galium (catchweed bedstraw, Galium aparine); conditions: Galium; for pest or weed control at 31 g/ha: 31 g ai/ha; for pest or weed control at 62 g/ha: 62 g ai/ha; for pest or weed control at 125 g/ha: 125 g ai/ha
Summary of the method: as §1

[7] = system: morningglory (Ipomoea coccinea); conditions: Ipomoea; for pest or weed control at 31 g/ha: 31 g ai/ha; for pest or weed control at 62 g/ha: 62 g ai/ha; for pest or weed control at 125 g/ha: 125 g ai/ha
Summary of the method: as §1

[8] = post-emergence, Postemergence, scale 0 to 100, 0 no effect, 100 complete control, read-out: Plant response rating, Waterhemp
[9] = pre-emergence, Preemergence, scale 0 to 100 (0 no effect, 100 complete control), read-out: Plant response rating, Waterhemp
[10] = post-emergence, Postemergence, scale 0 to 100, 0 no effect, 100 complete control, read-out: Plant response rating, Ryegrass, Italian
[11] = pre-emergence, Preemergence, scale 0 to 100 (0 no effect, 100 complete control), read-out: Plant response rating, Ryegrass, Italian
[12] = post-emergence, Postemergence, scale 0 to 100, 0 no effect, 100 complete control, read-out: Plant response rating, Lambsquarters
[13] = pre-emergence, Preemergence, scale 0 to 100 (0 no effect, 100 complete control), read-out: Plant response rating, Lambsquarters
[14] = post-emergence, Postemergence, scale 0 to 100, 0 no effect, 100 complete control, read-out: Plant response rating, Galium
[15] = pre-emergence, Preemergence, scale 0 to 100 (0 no effect, 100 complete control), read-out: Plant response rating, Galium
[16] = post-emergence, Postemergence, scale 0 to 100, 0 no effect, 100 complete control, read-out: Plant response rating, Morningglory
[17] = pre-emergence, Preemergence, scale 0 to 100 (0 no effect, 100 complete control), read-out: Plant response rating, Morningglory

For Fc1cccc(Oc2ncc(Cl)cn2)c1-c1cc(C(F)(F)F)on1 [Compound 168, 5-chloro-2-[2-[5-(trifluoromethyl)-3-isoxazolyl]-3-fluorophenoxy]pyrimidine], the pest or weed control at 125 g/ha ([1]; post-emergence, Postemergence, scale 0 to 100, 0 no effect, 100 complete control, read-out: Plant response rating, Ragweed) was 55%, the pest or weed control at 125 g/ha ([1]; pre-emergence, Preemergence, read-out: Plant response rating (scale 0 to 100), Ragweed) was 100% and the pest or weed control at 16 g/ha ([1]; pre-emergence, Preemergence, 16 g ai/ha, scale 0 to 100 (0 no effect, 100 complete control), read-out: Plant response rating, Ragweed) was 35%. It also gave a pest or weed control at 31 g/ha ([1]; pre-emergence, Preemergence, 31 g ai/ha, scale 0 to 100 (0 no effect, 100 complete control), read-out: Plant response rating, Ragweed) of 45%, a pest or weed control at 62 g/ha ([1]; pre-emergence, Preemergence, 62 g ai/ha, scale 0 to 100 (0 no effect, 100 complete control), read-out: Plant response rating, Ragweed) of 100% and a pest or weed control at 31 g/ha ([2]; post-emergence, Postemergence, scale 0 to 100 (0 no effect, 100 complete control), read-out: Waterhemp plant response rating) of 90%. For the same compound, the pest or weed control at 62 g/ha [2, 8] was 98%, the pest or weed control at 125 g/ha [2, 8] was 98% and the pest or weed control at 125 g/ha ([2]; pre-emergence, Preemergence, read-out: Plant response rating (scale 0 to 100), Waterhemp) was 100%. For the same compound, the pest or weed control at 16 g/ha ([2]; pre-emergence, Preemergence, 16 g ai/ha, scale 0 to 100 (0 no effect, 100 complete control), read-out: Plant response rating, Waterhemp) was 100%, the pest or weed control at 31 g/ha [2, 9] was 100% and the pest or weed control at 62 g/ha [2, 9] was 100%. The pest or weed control at 31 g/ha ([3]; post-emergence, Postemergence, scale 0 to 100 (0 no effect, 100 complete control), read-out: Ryegrass, Italian plant response rating) was 5%, the pest or weed control at 62 g/ha [3, 10] was 5% and the pest or weed control at 125 g/ha [3, 10] was 15%. It also gave a pest or weed control at 125 g/ha ([3]; pre-emergence, Preemergence, read-out: Plant response rating (scale 0 to 100), Ryegrass, Italian) of 95%, a pest or weed control at 16 g/ha ([3]; pre-emergence, Preemergence, 16 g ai/ha, scale 0 to 100 (0 no effect, 100 complete control), read-out: Plant response rating, Ryegrass, Italian) of 70% and a pest or weed control at 31 g/ha [3, 11] of 95%. For the same compound, the pest or weed control at 62 g/ha [3, 11] was 95%, the plant injury at 16 g/ha ([4]; post-emergence, Postemergence, 16 g ai/ha, scale 0 to 100 (0 no effect, 100 complete control), read-out: Corn plant response rating) was 5% and the plant injury at 31 g/ha ([4]; post-emergence, Postemergence, 31 g ai/ha, scale 0 to 100 (0 no effect, 100 complete control), read-out: Corn plant response rating) was 5%. It also gave a Corn plant response rating (crop injury, 0 = no effect, 100 = complete kill) at 62 g/ha ([4]; post-emergence, Postemergence, scale 0 to 100, 0 no effect, 100 complete control) of 10%, a Corn plant response rating (crop injury, 0 = no effect, 100 = complete kill) at 125 g/ha ([4]; post-emergence, Postemergence, 125 g ai/ha, scale 0 to 100, 0 no effect, 100 complete control) of 20% and a plant injury at 125 g/ha ([4]; pre-emergence, Preemergence, 125 g ai/ha, read-out: Plant response rating (scale 0 to 100), Corn) of 55%. For the same compound, the Corn plant response rating (crop injury, 0 = no effect, 100 = complete kill) at 16 g/ha ([4]; pre-emergence, Preemergence, 16 g ai/ha, scale 0 to 100 (0 no effect, 100 complete control)) was 0%, the Corn plant response rating (crop injury, 0 = no effect, 100 = complete kill) at 31 g/ha ([4]; pre-emergence, Preemergence, 31 g ai/ha, scale 0 to 100 (0 no effect, 100 complete control)) was 15% and the Corn plant response rating (crop injury, 0 = no effect, 100 = complete kill) at 62 g/ha ([4]; pre-emergence, Preemergence, scale 0 to 100 (0 no effect, 100 complete control)) was 25%. For the same compound, the pest or weed control at 31 g/ha ([5]; post-emergence, Postemergence, scale 0 to 100 (0 no effect, 100 complete control), read-out: Lambsquarters plant response rating) was 85%, the pest or weed control at 62 g/ha [5, 12] was 85% and the pest or weed control at 125 g/ha [5, 12] was 90%. The pest or weed control at 125 g/ha ([5]; pre-emergence, Preemergence, read-out: Plant response rating (scale 0 to 100), Lambsquarters) was 98%, the pest or weed control at 16 g/ha ([5]; pre-emergence, Preemergence, 16 g ai/ha, scale 0 to 100 (0 no effect, 100 complete control), read-out: Plant response rating, Lambsquarters) was 90% and the pest or weed control at 31 g/ha [5, 13] was 100%. For the same compound, the pest or weed control at 62 g/ha [5, 13] was 100%, the pest or weed control at 31 g/ha ([6]; post-emergence, Postemergence, scale 0 to 100 (0 no effect, 100 complete control), read-out: Galium plant response rating) was 95% and the pest or weed control at 62 g/ha [6, 14] was 95%. For the same compound, the pest or weed control at 125 g/ha [6, 14] was 100%, the pest or weed control at 125 g/ha ([6]; pre-emergence, Preemergence, read-out: Plant response rating (scale 0 to 100), Galium) was 100% and the pest or weed control at 16 g/ha ([6]; pre-emergence, Preemergence, 16 g ai/ha, scale 0 to 100 (0 no effect, 100 complete control), read-out: Plant response rating, Galium) was 100%. For the same compound, the pest or weed control at 31 g/ha [6, 15] was 100%, the pest or weed control at 62 g/ha [6, 15] was 100% and the pest or weed control at 31 g/ha ([7]; post-emergence, Postemergence, scale 0 to 100 (0 no effect, 100 complete control), read-out: Morningglory plant response rating) was 85%. For the same compound, the pest or weed control at 62 g/ha [7, 16] was 85%, the pest or weed control at 125 g/ha [7, 16] was 85% and the pest or weed control at 125 g/ha ([7]; pre-emergence, Preemergence, read-out: Plant response rating (scale 0 to 100), Morningglory) was 100%. It also gave a pest or weed control at 16 g/ha ([7]; pre-emergence, Preemergence, 16 g ai/ha, scale 0 to 100 (0 no effect, 100 complete control), read-out: Plant response rating, Morningglory) of 5%, a pest or weed control at 31 g/ha [7, 17] of 70% and a pest or weed control at 62 g/ha [7, 17] of 80%.
